Assay results taken from patent publication US12036190B2, “Methods and compositions for the treatment of cytoplasmic glycogen storage disorders” (Duke University, priority 2015, dated 2024).
“Also recorded” adds a separate entry of the source. Where two headings read alike, the source gives them in different places.

Columns and labels:
[1] = test system: G6pc siRNA knockdown AML-12 cells; settings: for Lipid Reduction Scoring, High dose / Lipid Reduction Scoring, Low dose / Lipid Reduction Scoring, Medium dose: Oil Red O, duplicate; for Lipid Reduction Scoring, Low dose: low concentration of Table 6; for Lipid Reduction Scoring, Medium dose: medium concentration of Table 6
Description: In brief, a wide array of drugs was selected, including those that modulate autophagy via the […] pathway, those that do so through AMPK modulation to act through mTORC1, and those using yet-undetermined pathways. Analysis of additional literature led to the selection of three concentrations of each compound to be tested in cell culture using the G6pc siRNA knockdown AML-12 mouse hepatocyte cell line model of GSD Ia as an initial screen for the drugs.
Drug concentrations were chosen based on similarity to published concentrations in either cell culture models resulting in target effects or autophagy, or in vivo extracellular fluid concentrations following animal treatments. The latter case is noted with the fluid type. Concentrations used in our in vitro AML-12 cell culture treatments are listed as the low, medium, and high concentrations that were screened.
The first test using AML-12 cells was the Oil Red 0 stain to examine the presence of lipid vacuoles in cells given the treatments.
G6pc siRNA knockdown AML-12 cells were given three different doses of each drug treatment. After 72 hours of growth, the media was changed to ketogenic media and appropriate quantities of each drug were added. This was performed in duplicate. Oil Red 0 staining was then performed and bright field images acquired at 10× magnification.
Drug treatments at three doses each were performed on G6pc siRNA knockdown AML-12 cells. Following oil red 0 staining the whole plates were evaluated visually for reductions in lipid accumulation. Treatments were performed in duplicate. —/0/+/++/+++ indicates the degree of improvement, or lipid reduction, caused by the treatment, with + indicating positive benefits.

autophagy = settings: Table 4; drugs known to enhance autophagy; cited from earlier work
HepG2 cells = experiment: LC3-II in HepG2 cells after clenbuterol; format: cell-based
Description: (§1) Asterisk indicates p<0.05.
(§2) Thus, clenbuterol, a long-acting β-agonist with proven safety for long-term treatment of mice, represents a leading candidate among drugs to be considered for the manipulation of autophagy in GSD Ia (Table 2).

[2] = test system: mouse primary hepatocytes; experiment: LC3-II in mouse primary hepatocytes after clenbuterol; format: cell-based; settings: 24 hours
Description: as §1, §2

[3] = test system: murine model for hepatosteatosis; format: in vivo, mouse
GAA knockout (KO) mice = experiment: β2 agonist with ERT (rhGAA) in GAA-KO mice with Pompe disease; settings: for CI-MPR (M6PR) expression: muscle; for glycogen content in skeletal muscle: β2 agonist added to ERT, versus ERT alone
G6pc−/− knockout mice = experiment: Bezafibrate treatment of G6pc−/− mice; format: in vivo
Description: G6pc−/− knockout mice were administered intraperitoneal injections of bezafibrate 25 mg/kg/day suspended in 10% DMSO/90% PBS IP for 3 days.

[4] = test system: patients with late-onset Pompe disease; settings: adjunctive to ERT; cited from earlier work
[5] = test system: G6pc knockdown AML-12 cells; experiment: LC3 Western blot of drug-treated G6pc knockdown AML-12 cells; format: cell-based, mouse; settings: 24 hours; conditions with optimal effects in the Oil Red O screen
Description: FIG. 27 illustrates LC3 Western blot of drug-treated G6pc knockdown AML-12 cells. Western blotting was performed on AML-12 cells incubated for 24 hours with the described drug conditions. LC3 was quantified and normalized against each condition's β-actin protein quantification.
In addition to Oil Red O staining, cells were analyzed via Western blots for restored LC3 expression for each drug, under the conditions that had optimal effects in the Oil Red O screen (FIG. 27). Since the Western antibody previously used successfully for rapamycin treatment LC3 blots had been discontinued by the manufacturer, we tested two alternative antibodies and chose the one from Cell Signaling Technologies because it gave the strongest signal-to-noise ratio under our experimental conditions.
Western blotting was performed on AML-12 cells incubated for 24 hours with the described drug conditions. LC3 was quantified and normalized against each condition's β-actin protein quantification.

O=C(O)CCCCC1CCSS1 (stereo not drawn) [α-Lipoic acid, α-lipoic acid]
Lipid Reduction Scoring, High dose ([1]; high concentration of Table 6): 0
Lipid Reduction Scoring, Low dose [1]: +
Effect (autophagy): Activated autophagy, reduced intercellular

Oc1ccc(C=Cc2cc(O)cc(O)c2)cc1 [Resveratrol]
Lipid Reduction Scoring, High dose ([1]; high concentration of Table 6): − − −
Lipid Reduction Scoring, Low dose [1]: +
Lipid Reduction Scoring, Medium dose [1]: 0 (Spotty ++)
Effect (autophagy): Enhanced FAO , reduced

CC(C)(C)NCC(O)c1cc(Cl)c(N)c(Cl)c1 (centres unmarked) [Clenbuterol, clenbuterol]
lowest concentration at which LC3-II is increased (HepG2 cells; 24 hours): 300 nM
LC3-II (HepG2 cells; 24 hours after addition): increases LC3-II
LC3-II [2]: increases LC3-II
autophagy ([3]; murine model for hepatosteatosis): induce autophagy
hepatosteatosis ([3]; preclinical experiments): reduced hepatosteatosis
muscle hypertrophy (GAA knockout (KO) mice; GAA-KO mice): induce muscle hypertrophy
CI-MPR (M6PR) expression (GAA knockout (KO) mice; GAA-KO mice): enhance CI-MPR expression
CI-MPR (M6PR) expression (GAA knockout (KO) mice; GAA-KO mice, listed as clenbuterol): increase the expression of CI-MPR; also recorded: increased CI-MPR expression; also recorded: enhancing M6PR expression
uptake of rhGAA (GAA knockout (KO) mice; preclinical experiments): increased the uptake of rhGAA
glycogen content in skeletal muscle (GAA knockout (KO) mice): lower glycogen content; also recorded: decreased glycogen storage

CC(C)(Oc1ccc(CCNC(=O)c2ccc(Cl)cc2)cc1)C(=O)O [Bezafibrate, bezafibrate]
Lipid Reduction Scoring, High dose ([1]; high concentration of Table 6): ++
Lipid Reduction Scoring, Medium dose [1]: +
kidney weight as a percentage of total body weight (G6pc−/− knockout mice; bezafibrate 25 mg/kg/day IP, p<0.046): very small but quantitatively significant increase
blood glucose level (G6pc−/− knockout mice; bezafibrate-treated affected mice, below threshold of detection): < 20 mg/dL

CN(C)c1ccc2nc3ccc(=[N+](C)C)cc-3sc2c1 [Methylene Blue, Methylene blue]
Lipid Reduction Scoring, High dose ([1]; high concentration of Table 6): − − −
Lipid Reduction Scoring, Low dose [1]: +
Lipid Reduction Scoring, Medium dose [1]: − −
Effect (autophagy): Activated autophagy, inhibited hepatosteatosis

CC(C)(C)NCC(O)c1ccc(O)c(CO)c1 (centres unmarked) [Albuterol, albuterol]
6 minute walk test performance [4]: improve the 6 minute walk test performance
glycogen content in skeletal muscle (GAA knockout (KO) mice): lower glycogen content

COc1ccc(CCN(C)CCCC(C#N)(c2ccc(OC)c(OC)c2)C(C)C)cc1OC (centres unmarked) [Verapamil]
cell survival, High dose ([1]; high concentration of Table 6): Very high death
Lipid Reduction Scoring, High dose ([1]; high concentration of Table 6): − −
Lipid Reduction Scoring, Medium dose [1]: +
Effect (autophagy): Induced autophagy, reduced cytosolic calcium

Thyroid hormone
Effect (autophagy): Increased autophagy, reduced steatosis

OC[C@H]1O[C@H](O[C@H]2O[C@H](CO)[C@@H](O)[C@H](O)[C@H]2O)[C@H](O)[C@@H](O)[C@@H]1O [Trehalose]
cell survival, High dose [1]: High death
Lipid Reduction Scoring, Low dose [1]: +
Lipid Reduction Scoring, Medium dose [1]: − −
Effect (autophagy): Stimulated autophagy

Cc1c(C)c2c(c(C)c1O)CC[C@@](C)(CCC[C@H](C)CCC[C@H](C)CCCC(C)C)O2 [α-Tocopherol]
Lipid Reduction Scoring, Low dose [1]: 0 (Spotty +)
Lipid Reduction Scoring, Medium dose [1]: − (Spotty ++)

CN(C)C(=N)N=C(N)N [Metformin]
Lipid Reduction Scoring, High dose ([1]; high concentration of Table 6): 0
Lipid Reduction Scoring, Low dose [1]: +
Effect (autophagy): Activated autophagy, activated AMPK in vitro

CC#C[C@]1(O)CC[C@H]2[C@@H]3CCC4=CC(=O)CCC4=C3[C@@H](c3ccc(N(C)C)cc3)C[C@@]21C [Mifepristone]
cell survival, High dose [1]: Great survival
Lipid Reduction Scoring, High dose ([1]; high concentration of Table 6): ++
Lipid Reduction Scoring, Low dose [1]: +
Lipid Reduction Scoring, Medium dose [1]: + (Spotty ++)
LC3 normalized against β-actin (Western blot) [5]: increase in LC3 autophagic marker
Effect (autophagy): Activated autophagy, inhibited FXR
